Measured values: publication PMC4464647, “ANO1 (TMEM16A) in pancreatic ductal adenocarcinoma (PDAC)” (Pflugers Archiv, 2014)
d = 2'-deoxy (DNA)

Assays:
[1] = system: BxPC-3 cells; test: BrdU incorporation cell proliferation assay; type: cell-based, human; settings: BxPC-3, inhibitor 20 μM, 24 h
Method: To assess cell proliferation and apoptosis, cells were plated in duplicates on a 96-well plate and incubated in 100 μl of the cell line appropriate media described above. Cells were transfected with siRNA soon after complete attachment (approx. 3 h after seeding). Cells were treated with vehicle, 20 μM gemcitabine, 20 μM T16Ainh-A01, or 10 μM free NS3728 (see below) after culture in a humidified 37 °C and 5 % CO2 incubator overnight. BrdU incorporation was measured using Cell Proliferation ELISA, BrdU (chemiluminescent) (Roche Diagnostics A/S, Denmark) following the manufacturer’s instructions. Caspases 3, 6, and 7 activation was evaluated using Homogeneous Caspases Assay (fluorimetric) (Roche Diagnostics A/S, Denmark).
Fig. 7 VRAC, but not ANO1, regulates cellular proliferation. a Summary of BrdU incorporation in HPDE, Capan-1, AsPC-1, and BxPC-3 cells after various treatments as indicated. Cells were transfected shortly after complete attachment (approx. 3 h) and BrdU incorporation was assessed 36 h after transfection. To investigate effect of inhibitors, cells were incubated for 24 h with respective inhibitor. Values shown are relative to appropriate control. Data shown represents mean ± s.e.m. of n = 4–6 individual experiments. **p ≤ 0.01 and ***p ≤ 0.001 when compared with control

[2] = molecular target: T1, CaCC current (Homo sapiens, UniProt Q5XXA6); test: Whole-cell patch-clamp of CaCC currents in PDAC cells, 1 μM Ca2+ in pipette solution; type: cell-based; settings: for decrease of CaCC currents: siRNA 50 nM, compared to scrambled siRNA (MOCK)
T1 construct: Whole-cell patch-clamp recordings identified large Ca^2+ and voltage-dependent Cl^− currents in PDAC cells; endogenous in cells; host or cells: Capan-1, AsPC-1, BxPC-3 (human PDAC cell lines, ATCC)
T1 sequence (Q5XXA6 1-986): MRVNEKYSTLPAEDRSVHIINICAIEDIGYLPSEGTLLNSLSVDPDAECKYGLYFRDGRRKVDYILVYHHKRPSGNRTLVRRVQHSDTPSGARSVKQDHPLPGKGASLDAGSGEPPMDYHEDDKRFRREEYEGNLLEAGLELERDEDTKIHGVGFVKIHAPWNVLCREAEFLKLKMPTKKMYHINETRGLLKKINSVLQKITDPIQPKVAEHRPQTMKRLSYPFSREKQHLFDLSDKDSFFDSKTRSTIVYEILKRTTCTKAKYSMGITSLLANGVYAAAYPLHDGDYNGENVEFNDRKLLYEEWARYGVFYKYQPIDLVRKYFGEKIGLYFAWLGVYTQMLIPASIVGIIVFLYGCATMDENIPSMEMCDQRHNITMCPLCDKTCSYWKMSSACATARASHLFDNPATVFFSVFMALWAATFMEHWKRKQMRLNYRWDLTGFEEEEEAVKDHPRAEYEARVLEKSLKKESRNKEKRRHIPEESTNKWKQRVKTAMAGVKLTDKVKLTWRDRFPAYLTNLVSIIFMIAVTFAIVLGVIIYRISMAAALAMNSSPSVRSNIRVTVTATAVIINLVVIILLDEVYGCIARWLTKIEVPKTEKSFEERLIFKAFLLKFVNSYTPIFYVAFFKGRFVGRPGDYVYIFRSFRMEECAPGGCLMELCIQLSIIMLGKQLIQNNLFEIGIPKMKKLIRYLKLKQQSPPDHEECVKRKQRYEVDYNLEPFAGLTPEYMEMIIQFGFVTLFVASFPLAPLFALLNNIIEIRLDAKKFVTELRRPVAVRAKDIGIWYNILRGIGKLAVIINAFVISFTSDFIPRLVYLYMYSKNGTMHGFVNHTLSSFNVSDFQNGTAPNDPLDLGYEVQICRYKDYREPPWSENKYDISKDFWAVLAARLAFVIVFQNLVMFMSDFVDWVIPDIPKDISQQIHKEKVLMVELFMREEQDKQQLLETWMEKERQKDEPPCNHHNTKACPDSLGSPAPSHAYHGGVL
Method: Cells were grown on poly-L-lysine coated coverslips. For knockdown experiments, cells were transfected with siRNA targeting ANO1 or scrambled siRNA shortly after complete attachment of the cells (approx. 3 h after plating). Currents were measured 36–48 h after transfection. Whole-cell patch-clamp recordings were performed using the Axopatch 200B amplifier interfaced to a Digidata 1440A controlled by pClamp10 software (Molecular Devices, USA). Analogue signals were acquired at 2.5 kHz and filtered at 1 kHz. […] An agar bridge made of 3 % agar and 97 % of the bath solution containing NMDG-Cl (below) was used as reference electrode. Current activations were recorded from an output holding potential, V out = 0 mV with ramp protocols spanning from −100 to 100 mV over 1 s and run continuously with 15-s intervals. Step protocols between −100 to 120 mV were generated from V out = 0 mV with step increments of 20 mV and lengths of 2 s. Liquid junction potentials (V lj) were estimated as described in [10] with membrane potentials calculated as, V m = V out − V lj. Series resistance was compensated by 60–70 %. All recordings were performed at room temperature (18–23 °C). Instantaneous currents were measured 1 ms after each voltage step. The data was fitted using the Goldman–Hodgkin–Katz (GHK) current equation.1 ICl^−=Pz^2F^2V/RTCo−Cie^zFV/RT/1−e^zFV/RT
One micromolar free Ca^2+ pipette solution include the following (in mM): 100 CsAsp, 40 CsCl, 4.34 CaCl2, 4 Na2ATP, 1 MgCl2, 5 EGTA, 10 HEPES, pH 7.2, osmolality 295 mosmol/kg or 0 μM free Ca^2+ solution containing no CaCl2 and 10 mM EGTA. Standard bath solution include the following (in mM): 150 NaCl, 1.5 CaCl2, 1 MgCl2, 10 glucose, 10 HEPES, pH 7.4, osmolality 315 mosmol/kg (adjusted with D-mannitol). Isotonic solution include the following (in mM): 85 NaCl, 2 MgCl2, 1.5 CaCl2, 10 glucose, 10 HEPES, pH 7.4, of osmolality 315 mosmol/kg (adjusted with D-mannitol). The hypotonic solution with osmolality of 210 mosmol/kg was obtained by omitting D-mannitol from the isotonic solution. For experiments testing efficiency of an inhibitor, NaCl was replaced by N-methyl-D-glucamine chloride (NMDG-Cl) after seal formation. All osmolalities were measured in a Wescor Vapro model 5520 osmometer (Wescor Inc., USA) calibrated by the manufacturer’s Optimol standard solutions.
Whole-cell patch-clamp recordings with 1 μM Ca^2+ in pipette solution. a Representative current traces measured in Capan-1 cells upon exposure to different inhibitors. b Quantification of CaCC currents at +67 mV recorded with inhibitors compared to currents in presence of DMSO; currents of siANO1 cells were compared to those of MOCK transfected cells. c Steady-state I–V relationships of cells transfected with either scrambled siRNA (MOCK) or siRNA targeting ANO1. d Densitometric quantification of Western blot analysis of siRNA knockdown. β-Actin was used as a loading control. (n) = number of individual experiments

CC(C)(C)C1CCc2c(sc(NC(=O)c3ccco3)c2C(=O)O)C1 (centres unmarked) [CaCCinh-A01, 6-(1,1-dimethylethyl)-2-[(2-furanylcarbonyl)amino]-4,5,6,7-tetrahydrobenzo[b]thiophene-3-carboxylic acid]
proliferation (BrdU incorporation) [1]: larger effect

CCc1c(C)nc(SCC(=O)Nc2nc(-c3ccc(OC)cc3)cs2)[nH]c1=O [T16Ainh-A01, 2-[(5-Ethyl-1,6-dihydro-4-methyl-6-oxo-2-pyrimidinyl)thio]-N-[4-(4-methoxyphenyl)-2-thiazolyl]acetamide]
inhibition at 20 µM ([2]; ASPC1, AsPC-1 cells, inhibitor 20 μM, at +67 mV, vs DMSO): 29 ± 2%
inhibition of CaCC current ([2]; BxPC-3 cells, inhibitor 20 μM, at +67 mV, vs DMSO): ineffective
inhibition at 20 µM ([2]; Capan-1 cells, inhibitor 20 μM, at +67 mV, vs DMSO): 43 ± 8%
proliferation (BrdU incorporation) [1]: slight, but non-significant decrease of proliferation

siRNA targeting ANO1: Predesigned siRNA oligo from Sigma-Aldrich, 5′-CCUUCAACGUCAGUGACUU[dT][dT]-3′, 5′-AAGUCACUGACGUUGAAGG[dT][dT]-3′ (RNA, 3' dTdT, backbone not given here)
decrease of CaCC currents ([2]; AsPC-1 cells): 89 ± 51%
decrease of CaCC currents ([2]; BxPC-3 cells): 84 ± 23%
decrease of CaCC currents ([2]; Capan-1 cells): 88 ± 42%
